Experimental data published in publication PMC9405955, “Plasmodium falciparum Nicotinamidase as A Novel Antimalarial Target” (Biomolecules, 2022).

How the values were obtained:
[1] = biological target: T1, P. falciparum nicotinamidase (PfNic) (Plasmodium falciparum, UniProt O97284); assay: […]-nicotinamide to nicotinic acid conversion (HPLC, scintillation counting) in lysates of parasites pre-treated with […] compound for […] h; format: cell-based
T1 construct: gene PF3D7_0320500
T1 sequence (O97284 1-429): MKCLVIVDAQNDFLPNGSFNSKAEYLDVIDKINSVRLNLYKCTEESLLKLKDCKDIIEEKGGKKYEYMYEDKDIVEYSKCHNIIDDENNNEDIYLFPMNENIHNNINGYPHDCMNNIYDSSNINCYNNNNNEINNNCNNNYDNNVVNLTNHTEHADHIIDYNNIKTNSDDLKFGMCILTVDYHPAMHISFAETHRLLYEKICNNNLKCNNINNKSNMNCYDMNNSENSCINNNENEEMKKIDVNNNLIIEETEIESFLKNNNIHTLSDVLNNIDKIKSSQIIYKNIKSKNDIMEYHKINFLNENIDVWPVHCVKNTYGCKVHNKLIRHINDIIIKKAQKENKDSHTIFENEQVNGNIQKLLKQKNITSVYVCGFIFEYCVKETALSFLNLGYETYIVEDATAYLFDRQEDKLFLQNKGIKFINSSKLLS

[2] = substrate: NC(=O)c1cccnc1; assay: purified protein; format: biochemical, Plasmodium falciparum

For Cc1cncc(C=O)c1 [5-methyl-nicotinaldehyde], the “14C-nicotinamide to nicotinic acid conversion (HPLC, scintillation counting) in” value [1] was “indicating 5-Me-nicotinaldehyhde was able to inhibit P. falciparum nicotinamidase in the lysate”.

B1: P. falciparum nicotinamidase (PfNic) (Plasmodium falciparum 3D7) (protein)
chain: T1 sequence (O97284 1-429)
notes: 429 amino acids, N-terminal histidine tag (pet28a), expressed in Rosetta (DE3) E. coli
B1 gave a Km [2] of 3.0 ± 0.9 µM.
